Reference: the supplement of paper PMC10307832

Key:
Test in all cases: relative viability (nuclei count vs DMSO), 5 days (fraction); higher = more cells survive
Neratinib + Lapatinib = compound: CCOc1cc2ncc(C#N)c(Nc3ccc(OCc4ccccn4)c(Cl)c3)c2cc1NC(=O)/C=C/CN(C)C [Neratinib] + CS(=O)(=O)CCNCc1ccc(-c2ccc3ncnc(Nc4ccc(OCc5cccc(F)c5)c(Cl)c4)c3c2)o1 [Lapatinib] (partner 2 µM)
Method in brief: (§1)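 After 5 days of treatment, lung cancer cells in 1536-well plates were fixed and stained in a single step (final 0.05% Triton X-100, 1% formaldehyde, 1 ug/ml Hoechst) and their nuclei counted on 4× images. Treatment had been applied by pin tool the day after seeding as one drug alone or as a fixed anchor-drug dose with five library-drug doses (not always all listed) in √10 steps. Relative viability is the nuclei count of treated wells divided by that of vehicle wells, and values are medians of duplicate plates.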

Neratinib + OSI-027 = compound: CCOc1cc2ncc(C#N)c(Nc3ccc(OCc4ccccn4)c(Cl)c3)c2cc1NC(=O)/C=C/CN(C)C [Neratinib] + COc1cccc2cc(-c3nc([C@H]4CC[C@H](C(=O)O)CC4)n4ncnc(N)c34)[nH]c12 [OSI-027] (partner 0.5 µM)
Method in brief: as §1

Neratinib + Luminespib = compound: CCOc1cc2ncc(C#N)c(Nc3ccc(OCc4ccccn4)c(Cl)c3)c2cc1NC(=O)/C=C/CN(C)C [Neratinib] + CCNC(=O)c1noc(-c2cc(C(C)C)c(O)cc2O)c1-c1ccc(CN2CCOCC2)cc1 [Luminespib] (partner 0.01 µM)
Method in brief: as §1

Neratinib + Linsitinib = compound: CCOc1cc2ncc(C#N)c(Nc3ccc(OCc4ccccn4)c(Cl)c3)c2cc1NC(=O)/C=C/CN(C)C [Neratinib] + C[C@]1(O)C[C@@H](c2nc(-c3ccc4ccc(-c5ccccc5)nc4c3)c3c(N)nccn32)C1 [Linsitinib] (partner 1 µM)
Method in brief: as §1

Row | Cell Line | relative viability (Neratinib + Lapatinib; first compound 0.01 µM) | relative viability (Neratinib + Lapatinib; first compound 0.1 µM) | relative viability (Neratinib + Lapatinib; first compound 0.3162 µM) | relative viability (Neratinib + Lapatinib; first compound 1 µM) | relative viability (Neratinib + OSI-027; first compound 0.01 µM) | relative viability (Neratinib + OSI-027; first compound 0.03162 µM) | relative viability (Neratinib + OSI-027; first compound 0.1 µM) | relative viability (Neratinib + OSI-027; first compound 0.3162 µM) | relative viability (Neratinib + OSI-027; first compound 1 µM) | relative viability (Neratinib + Luminespib; first compound 0.01 µM) | relative viability (Neratinib + Luminespib; first compound 0.03162 µM) | relative viability (Neratinib + Luminespib; first compound 0.1 µM) | relative viability (Neratinib + Luminespib; first compound 0.3162 µM) | relative viability (Neratinib + Luminespib; first compound 1 µM) | relative viability (Neratinib + Linsitinib; first compound 0.01 µM) | relative viability (Neratinib + Linsitinib; first compound 0.03162 µM) | relative viability (Neratinib + Linsitinib; first compound 0.1 µM) | relative viability (Neratinib + Linsitinib; first compound 0.3162 µM) | relative viability (Neratinib + Linsitinib; first compound 1 µM) | relative viability (Neratinib + Lapatinib; first compound 0.03162 µM)
1 | NCI-H2126 | 0.79 | 0.735 | 0.754 | 0.672 | 0.697 | 0.688 | 0.69 | 0.649 | 0.447 | 0.932 | 0.853 | 0.828 | 0.822 | 0.464 | 0.693 | 0.719 | 0.581 | 0.654 | 0.38 | –
2 | NCI-H23 | 1.05 | 1.09 | 1.02 | 0.762 | 0.717 | 0.664 | 0.561 | 0.504 | 0.296 | 0.201 | 0.231 | 0.203 | 0.225 | 0.204 | 0.62 | – | 0.486 | 0.552 | 0.398 | 0.932
3 | PC-3 [JPC-3] | 0.457 | 0.455 | 0.485 | 0.373 | 0.814 | 0.749 | 0.662 | 0.544 | 0.319 | 0.702 | 0.733 | 0.648 | 0.496 | 0.326 | 1.03 | 1.03 | 0.894 | – | 0.348 | 0.433
4 | NCI-H838 | 1.11 | 0.949 | 0.947 | 0.468 | 0.463 | 0.492 | 0.419 | 0.325 | 0.226 | 0.252 | 0.269 | 0.258 | 0.22 | 0.21 | 1.06 | 1.17 | 0.945 | 0.819 | 0.409 | 1.2
5 | NCI-H650 | 1.04 | 0.996 | – | 1.04 | 0.546 | 0.544 | 0.553 | 0.46 | 0.456 | 0.814 | 0.888 | 0.621 | 0.722 | 0.392 | 1 | 0.986 | 1.03 | – | 0.577 | 1.02
6 | EBC-1 | 0.205 | 0.199 | 0.233 | 0.211 | – | – | – | – | – | – | – | – | – | – | 0.932 | 1.08 | 0.842 | 0.914 | 1.04 | 0.192
7 | PC-14 | 0.365 | 0.267 | 0.285 | 0.302 | 0.739 | 0.987 | 0.798 | 0.177 | 0.0699 | 0.176 | 0.129 | 0.156 | 0.116 | 0.129 | 0.979 | 1.1 | 0.872 | 0.639 | 0.216 | 0.327
8 | NCI-H1299 | 0.969 | 0.938 | 0.976 | 1.04 | – | – | – | – | – | – | – | – | – | – | 0.996 | 1.07 | 0.846 | 0.944 | – | 0.957
9 | LK-2 | 1.28 | 0.95 | 0.664 | 0.578 | 0.189 | 0.227 | 0.217 | 0.189 | 0.182 | 0.183 | 0.21 | 0.197 | 0.18 | 0.125 | 0.464 | 0.521 | 0.71 | 0.339 | 0.214 | 1.2
10 | NCI-H2009 | 0.939 | 0.862 | 0.834 | 1.52 | 0.677 | 0.762 | 0.59 | 0.467 | 0.304 | 0.998 | 1.01 | 0.828 | 1.01 | 0.962 | 1.2 | 1.15 | 0.85 | 1.18 | – | 1.15
11 | RERF-LC-KJ | 0.78 | 0.854 | – | 0.915 | 0.539 | – | 0.477 | 0.434 | 0.326 | 1.45 | 1.18 | 1.16 | 1.14 | 0.531 | 0.943 | – | 0.865 | 0.714 | 0.712 | 0.923
12 | NCI-H2170 | 0.284 | 0.289 | 0.301 | 0.255 | 0.761 | 0.771 | 0.287 | 0.22 | 0.239 | 0.727 | 0.637 | 0.365 | 0.271 | 0.304 | – | – | – | – | – | 0.278
13 | SW 900 | – | – | – | – | 0.597 | 0.604 | 0.621 | 0.574 | 0.385 | 0.184 | 0.157 | 0.148 | 0.194 | 0.169 | – | – | – | – | – | –
14 | LCLC-103H | – | – | – | – | 0.562 | 0.48 | 0.47 | 0.463 | 0.394 | 0.921 | 0.981 | 0.883 | 0.93 | 0.647 | 1.21 | 0.975 | – | 0.961 | 0.814 | –
15 | NCI-H1650 | – | 0.736 | 0.84 | 0.742 | 0.557 | 0.598 | 0.435 | – | 0.37 | 0.201 | 0.186 | 0.204 | 0.228 | 0.203 | – | – | – | – | – | 0.66
16 | IA-LM | 0.708 | 0.63 | 0.914 | 0.619 | – | – | – | – | – | – | – | – | – | – | 0.537 | 0.87 | 0.581 | 0.541 | 0.628 | 0.822
17 | NCI-H2342 | – | – | – | – | 0.73 | 0.63 | 0.528 | 0.464 | 0.462 | 0.72 | 0.717 | 0.712 | 0.621 | – | – | – | – | – | – | –
18 | HCC-366 | 1.27 | 0.901 | 1.09 | 1.06 | 1.1 | 0.949 | 0.785 | 0.803 | 0.163 | – | – | – | – | – | 0.736 | 0.734 | – | 0.759 | 0.614 | 1.18
19 | NCI-H441 | – | – | – | – | 0.681 | 0.566 | 0.598 | 0.357 | 0.275 | 0.415 | 0.413 | 0.423 | 0.304 | 0.16 | 0.585 | 0.716 | 0.469 | 0.267 | 0.219 | –
20 | NCI-H522 | – | – | – | – | 0.687 | 0.702 | 0.605 | 0.548 | 0.497 | 1.12 | 1.12 | 1.09 | 0.913 | 0.655 | – | – | – | – | – | –
21 | HCC-78 | 0.89 | 0.788 | 0.952 | 0.398 | 0.387 | 0.333 | 0.354 | 0.27 | 0.296 | – | – | – | – | – | 0.543 | 0.665 | 0.483 | 0.338 | 0.241 | 1.09
